Experiments:
Caenorhabditis elegans = experiment: Antiparasitic activity against Caenorhabditis elegans in 96 well microplate (movement graded 0-3, MIC); format: in vivo; details: concentration required to give Indication 2 (or 3) for caenorhabditis elegans; 20° C., observed after 24 and 48 hours
Source text: (§1) Methods for determining antiparasitic effects of the compounds disclosed according to the present invention are explained below.
(§2) As model insects for simple determination of antiparasitic and insecticidal activities, those insects are desired which can be easily obtained and bred in laboratories, and have no pathogenicity to a human. Caenorhabditis elegans, an unparasitic eelworm widely used in experiments of genetics, was used as a typical steam worm, and artemia salina used as feed for tropical fish and named Brine shrimp, was used instead of insects.
Preparation of Caenorhabditis elegans Used for Evaluation
Escherichia coli for the feed of caenorhabditis elegans (mutant having uracil requirement) was inoculated in a seed medium for E. coli to which a small amount of uracil was added, and cultured with shaking at 27° C. for 1 day. A petri dish of 6 cm diameter was filled with 10 mL of an agar medium for eelworm proliferation, and the medium was solidified. Then 0.5 mL of the culture of E. coli was spread over the medium in the dish, and the dish was incubated at 37° C. to proliferate E. coli. A piece of the agar was collected with a platinum loop from a petri dish in which caenorhabditis elegans successfully proliferated, and inoculated in petri dishes in which E. coli was proliferated. The petri dishes were incubated at 20° C. to proliferate caenorhabditis elegans. Since the life of eelworm is about 2 weeks, subculture was carried out every once a week. The eelworms grown with spread on the surface of the petri dish after 3 to 5 days from subculture were used for the experiments.
<Preparation of Agar Medium for Eelworm Proliferation>
Solution A was obtained by dissolving 0.3% of sodium chloride, 1.7% of bact-agar (DIFCO Co.), 0.5% of bact-peptone (DIFCO Co.) and 1.0% of yeast extract (DIFCO Co.) in distilled water.
Solution B was obtained by dissolving 0.5% of cholesterol in ethanol.
Solution C was obtained by dissolving 13.9% of calcium chloride in distilled water.
Solution D was obtained by dissolving 30.8% of magnesium sulfate heptahydrate in distilled water.
Solution E was obtained by dissolving 13.54% of KH2PO4 and 4.45% of K2HPO4 in distilled water.
The aforementioned Solutions A, C and D were sterilized in an autoclave at 121° C. for 20 minutes, and each solution was stored at 4° C.
The agar medium for eelworm proliferation was prepared by mixing the solutions in the following proportion: Solution A: 100 mL, Solution B: 0.1 mL, Solution C: 0.05 mL, Solution D: 0.1 mL and Solution E: 2.5 mL (without pH adjustment), and dispensing each 10 mL portion into petri dishes of 60×15 mm.
<Preparation of E. coli Seed Medium>
In distilled water, 2.0% of bact-trypton (DIFCO Co.), 0.55% of sodium chloride and 0.001% of uracil (SIGMA Co., pH 7.4) were dissolved, and the solution was sterilized in an autoclave at 121° C. for 20 minutes.
(§3) Each well of a 96 well microplate was filled with the solution of the test compound (methanol as a solvent), and the solvent was removed using a vacuum pump, then 250 μl of the assay medium was added to each wells (the assay medium was prepared by dissolving 7.5 mM sodium hydrogencarbonate, 7.5 mM potassium chloride, 7.5 mM calcium chloride dihydrate and 7.5 mM magnesium sulfate heptahydrate in distilled water and adding 0.01% of lecithin to the solution), and then the microplate was shaken using a microplate mixer for 15 minutes. To each well, a few individuals of caenorhabditis elegans were added by softly rubbing the surface of the agar using a toothpick, or a few individuals of artemia salina were added together with 50 μl of the buffer. The microplate was incubated at 20° C., and then the insects were observed after 24 and 48 hours under a microscope (magnification of 40×). The results were compared to those obtained without addition of the test compound, and evaluated by 4 grades.
(§4) The evaluation results were shown by indications of 4 grades from 0 to 3.
1: A little week movements […]

artemia salina = experiment: Insecticidal model activity against artemia salina (Brine shrimp) in 96 well microplate (movement graded 0-3, MIC); format: in vivo; details: concentration required to give Indication 2 (or 3) for artemia salina; 20° C., observed after 24 and 48 hours
Source text: as §1, §2
<Preparation of Artemia salina Used for Evaluation>
To a buffer for artemia salina (obtained by dissolving 0.24% of Tris, 2.57% of sodium chloride, 0.47% of magnesium chloride, 0.07% of potassium chloride, 0.02% of sodium carbonate, 0.64% of magnesium sulfate and 0.11% of calcium chloride in distilled water and adjusting the pH to 7.1 with hydrochloric acid), dried eggs of artemia salina [Tetra Brine Shrimp Eggs, Warner Lambert Co.] were added. The noprius larvae 1 or 2 days after hatching were used for the experiments.
as §3, §4
1: A little week movements
Of the 4 grades, Indications 3 and 2 were judged as effective, and Indications 1 and 0 as ineffective. In Table 7, the values for each compound are minimum inhibitory concentrations (MIC) which were required to give Indication 2 (or 3) for caenorhabditis elegans or artemia salina. In Table 7, caenorhabditis elegans and artemia salina are abbreviated as C.E. and A.S., respectively.

| Compound | C.E. minimum inhibitory concentrations (MIC) (Caenorhabditis elegans) [ng/mL] | A.S. minimum inhibitory concentrations (MIC) (artemia salina) [ng/mL] |
| --- | --- | --- |
| CC[C@H](C)[C@H]1O[C@]2(C=C[C@@H]1C)C[C@@H]1C[C@@H](C/C=C(\C)[C@@H](O[C@H]3C[C@H](OC)[C@@H](O)[C@H](C)O3)[C@@H](C)/C=C/C=C3\CO[C@@H]4[C@H](O)C(C)=C[C@@H](C(=O)O1)[C@]34O)O2 [Avermectin B1a monosaccharide, avermectin B1a monosaccharide] | 2 | 2 |
| CCC(C)C1O[C@]2(C=C[C@@H]1C)C[C@@H]1CC(C/C=C(\C)[C@@H](OC3C[C@H](OC)[C@@H](OC4C[C@H](OC)[C@@H](O)[C@H](C)O4)[C@H](C)O3)[C@@H](C)/C=C/C=C3\COC4[C@H](O)C(C)=CC(C(=O)O1)[C@]34O)O2 (stereo partly drawn) [Avermectin B1a] | 2 | 0.5 |
| CCC(C)C1OC2(C=C[C@@H]1C)CC1CC(C/C=C(\C)C(O[C@H]3CC(OC)C(=CC(=O)O)C(C)O3)[C@@H](C)/C=C/C=C3\COC4C(O)C(C)=CC(C(=O)O1)[C@]34O)O2 (stereo partly drawn) [Compound 6] | 2 | 2 |
| CCC(C)C1OC2(CC[C@@H]1C)CC1CC(C/C=C(\C)C(O[C@H]3CC(OC)C(=CC#N)C(C)O3)[C@@H](C)/C=C/C=C3\COC4C(O)C(C)=CC(C(=O)O1)[C@]34O)O2 (stereo partly drawn) [Compound 22] | 2 | 2 |
| CCC(C)C1OC2(CCC1C)CC1CC(CC=C(C)C(OC3CC(OC)C(O)C(C)O3)C(C)C=CC=C3COC4C(O)C(C)=CC(C(=O)O1)C34O)O2 (stereo not drawn) [Ivermectin monosaccharide, 22,23-dihydroavermectin B1a monosaccharide] | 2 | 2 |
| Ivermectin | 2 | 2 |
